Source: PMC6691809 (Mycobiology, 2019)

Columns and labels:
[1] = target: neuraminidase from recombinant H5N1 influenza A virus (Influenza A virus, UniProt Q6DPL2); experiment: biochemical
[2] = target: neuraminidase from recombinant H3N2 influenza A virus (Influenza A virus, UniProt P03482); experiment: biochemical; type: biochemical
neuraminidase from recombinant H3N2 influenza A virus, sequence (P03482 whole entry): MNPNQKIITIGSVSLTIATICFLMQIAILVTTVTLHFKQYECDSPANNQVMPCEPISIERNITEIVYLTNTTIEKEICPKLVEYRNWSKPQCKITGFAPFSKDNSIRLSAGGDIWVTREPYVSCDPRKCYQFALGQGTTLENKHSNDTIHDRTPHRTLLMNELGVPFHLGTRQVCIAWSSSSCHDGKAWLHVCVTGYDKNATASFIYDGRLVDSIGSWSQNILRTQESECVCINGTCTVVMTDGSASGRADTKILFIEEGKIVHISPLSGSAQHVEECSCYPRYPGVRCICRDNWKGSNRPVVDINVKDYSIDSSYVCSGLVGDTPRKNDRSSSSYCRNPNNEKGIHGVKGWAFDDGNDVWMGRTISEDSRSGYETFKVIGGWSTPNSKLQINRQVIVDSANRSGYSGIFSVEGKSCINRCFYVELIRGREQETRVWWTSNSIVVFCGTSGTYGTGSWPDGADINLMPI

neuraminidase from recombinant H5N1 influenza A virus, sequence (Q6DPL2 whole entry, looked up): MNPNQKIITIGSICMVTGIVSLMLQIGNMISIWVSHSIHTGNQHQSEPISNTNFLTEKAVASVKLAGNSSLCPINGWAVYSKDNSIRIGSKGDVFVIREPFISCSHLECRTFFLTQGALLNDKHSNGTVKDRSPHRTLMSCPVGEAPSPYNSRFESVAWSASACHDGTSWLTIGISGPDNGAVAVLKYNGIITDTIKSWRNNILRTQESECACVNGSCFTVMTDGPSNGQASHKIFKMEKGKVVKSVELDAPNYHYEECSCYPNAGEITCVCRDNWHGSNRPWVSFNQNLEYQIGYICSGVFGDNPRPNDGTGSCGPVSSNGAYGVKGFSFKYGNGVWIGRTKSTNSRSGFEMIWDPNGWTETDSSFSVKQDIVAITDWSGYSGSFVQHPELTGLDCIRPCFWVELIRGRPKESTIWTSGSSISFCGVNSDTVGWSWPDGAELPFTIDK

Compound: C/C=C/C1=CC2=C(CO1)C(=O)[C@](C)(O)[C@H](OC(=O)c1c(C)cc(O)cc1O)C2 [Compound 3, comazaphilone D]
- IC50 [1]: 35.7 ± 0.2 µM
- Inhibition type [2]: Non-competitive (35.3)
- Ki [2]: 35.3 µM
- IC50 ([2]; IC50 H3N2 neuraminidase): 30.9 ± 0.1 µM
